Source: the supplement of paper PMC10307832

Legend:
Assay in all cases: relative viability (nuclei count vs DMSO), 5 days (fraction); higher = more cells survive
Zebularine + Pictilisib = compound: O=c1ncccn1[C@@H]1O[C@H](CO)[C@@H](O)[C@H]1O [Zebularine] + CS(=O)(=O)N1CCN(Cc2cc3nc(-c4cccc5[nH]ncc45)nc(N4CCOCC4)c3s2)CC1 [Pictilisib] (partner 1 µM)
How it was run: (§1)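 Relative viability was taken as the ratio of nuclei in treated wells to nuclei in vehicle wells. Lung cancer cell lines in 1536-well plates received compounds by pin tool one day after seeding, either one drug alone or a fixed anchor-drug dose plus five library-drug doses (not always all listed) in √10 steps. Nuclei were counted on 4× images after 5 days of treatment, and values are medians of duplicate plates.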

Zebularine + Foretinib = compound: O=c1ncccn1[C@@H]1O[C@H](CO)[C@@H](O)[C@H]1O [Zebularine] + COc1cc2c(Oc3ccc(NC(=O)C4(C(=O)Nc5ccc(F)cc5)CC4)cc3F)ccnc2cc1OCCCN1CCOCC1 [Foretinib] (partner 0.25 µM)
How it was run: as §1

Zebularine = compound: O=c1ncccn1[C@@H]1O[C@H](CO)[C@@H](O)[C@H]1O [Zebularine]
How it was run: (§2)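 Vehicle-anchored 1536-well plates of lung cancer cell lines, held overnight at 37 °C, were pinned with five library-drug doses (not always all listed) spaced by √10. No medium change followed over the next 5 days, after which the cells were fixed, permeabilised and Hoechst-stained together and imaged at 4×. Nuclei were counted with MetaXpress, and viability is treated-well nuclei over vehicle-well nuclei, taken as a median across plates. Plates passed with control CV below 25% and at least one doubling.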

BI-D1870 = compound: CC(C)CCN1c2nc(Nc3cc(F)c(O)c(F)c3)ncc2N(C)C(=O)C1C [BI-D1870]
How it was run: as §2

UMC-11
relative viability (Zebularine + Pictilisib; first compound 1 µM): 0.89
relative viability (Zebularine + Pictilisib; first compound 3.162 µM): 0.451
relative viability (Zebularine + Pictilisib; first compound 10 µM): 0.467
relative viability (Zebularine + Pictilisib; first compound 31.62 µM): 0.653
relative viability (Zebularine + Pictilisib; first compound 100 µM): 0.35
relative viability (Zebularine + Foretinib; first compound 1 µM): 1
relative viability (Zebularine + Foretinib; first compound 3.162 µM): 1.06
relative viability (Zebularine + Foretinib; first compound 10 µM): 0.626
relative viability (Zebularine + Foretinib; first compound 31.62 µM): 0.635
relative viability (Zebularine + Foretinib; first compound 100 µM): 0.357
relative viability (Zebularine; 1 µM): 1.1
relative viability (Zebularine; 3.162 µM): 0.824
relative viability (Zebularine; 10 µM): 0.673
relative viability (Zebularine; 31.62 µM): 0.653
relative viability (Zebularine; 100 µM): 0.422
relative viability (BI-D1870; 0.04 µM): 0.972
relative viability (BI-D1870; 0.1265 µM): 0.949
relative viability (BI-D1870; 0.4 µM): 1.04
relative viability (BI-D1870; 1.265 µM): 1.02
relative viability (BI-D1870; 4 µM): 0.387
